Results from US6262095A, “Use of tricyclic derivatives of 1,4-dihydro-1,4-dioxo-1H-naphthalene, novel compounds obtained and their application in theraphy” (Laboratoire Innothera, priority 1995, dated 2001).

What was measured:
jugular vein of the rat = test: Contraction of rat jugular vein under depolarizing hyperpotassic conditions; format: cell-based; settings: pH 7.4, read-out: ED50 (contraction)
Procedure: (§1) The contractile effects are measured in vitro under static conditions on vascular capacitance or resistance rings of saphenous, femoral, jugular, mesenteric, and caval veins . . . and on femoral, carotid, basilar, or mesenteric arteries, as well as the thoracic or abdominal aorta . . . in rats (Wistar, 200-250 g), rabbits (New Zealand, 2-2.5 kg), guinea pigs (Dunkin Hartley 250-300 g).
(§2) The rings are placed in a chamber for isolated organs (25 mL for capacitance vessels and 2.5 mL for resistance vessels according to Mulvany), and maintained under isometric conditions using two rigid threads inserted inside the vessel, avoiding causing damage to the endothelium. The vessels are bathed in a modified Krebs solution (in mM: NaCl=118; KCl=4.6; CaCl2 =2.5; MgSO4 =1.2; KH2 PO4 =1.17; NaHCO3 =25; glucose=11), continuously aerated using a gaseous mixture of 95% O2 and 5% Co2, at a pH=7.4, and regulated by thermostat at 37° C. The rings are adjusted to their optimal point as far as the tension-length relationship is concerned. […] The pharmacological studies are carried out after a few standardized preliminary contractile stimulations using a depolarizing solution (hyperpotassic type obtained by replacing NaCl with KCl in equimolar quantities), along with rinsings and periods of equilibration in a pure physiological solution. […]

[1] = system: pleurisy by carrageenin in rats; test: Pleurisy induced by carrageenin in rats; format: in vivo; settings: rat, oral 3×5 mg
Procedure: The anti-inflammatory activity of the compounds is also studied by measuring the inhibition of the edema and the leukocyte migration after the induction of pleurisy in rats by the injection of carrageenin into the pleural cavity (Almeida et al., J. Pharmacol. Exp. Therap., 1980, Vol. 214: p. 74). The rats are treated orally using the compounds 2 h before the injection of carrageenin, and 2 and 4 h after this injection. After a predetermined time (6 h) following the induction of pleurisy, the rats are sacrificed; the pleural liquid is recovered by aspiration, and its volume is measured. The leukocytic cells are counted using the "cell counter" technique. The results are expressed as the number of leukocytes in the exudate expressed with respect to 100 g of animal weight and compared with those of the control lot.

[2] = system: basilar artery of rabbits; test: Contraction of rabbit basilar artery under depolarizing hyperpotassic conditions; format: cell-based
Procedure: as §1, §2

[3] = system: carotid arteries of rabbits; test: Contraction of rabbit carotid arteries under depolarizing hyperpotassic conditions; format: cell-based; settings: Oryctolagus cuniculus, pH 7.4, read-out: ED50 (contraction)
Procedure: as §1, §2

mice = test: Single oral administration toxicity in mice; format: in vivo, mouse; settings: single oral administration, 1 g/kg
Text: Moreover, the compounds of the invention and their possible salts have a very low toxicity.

[4] = system: perfused mesenteric venous network of rats; test: Contraction of the perfused mesenteric venous network of rats; format: cell-based; settings: rat perfused mesenteric venous network, depolarizing hyperpotassic conditions; read-out: ED50 (contraction)
Procedure: The contractile effects are also measured in vitro under dynamic flow conditions, by the pressure developed by the vascular beds that are perfused at a constant flow rate. At the mesenteric level, the selective effect on veins is studied using the model of a double simultaneous and separate infusion of the arterial and venous networks model developed by T. Warner (British J. Pharmacol., 1990, Vol. 99, pp. 427-433). The separation of the two networks is achieved by cutting the vessels and the tissues along the intestinal border. The networks are perfused at 2 mL.min^-1 with a Krebs solution (37.5° C.), which is aerated using 95% O2 and 5% CO2. In vivo, the arterial and venous pressures are measured in the anesthetized animal, under basal conditions and after circulatory arrest caused by the swelling of a balloon catheter introduced at the level of the left atrium. During the cardiac arrest, the venous tone (average circulatory filling pressure at a constant blood volume) is calculated from the venous and arterial pressures measured at equilibrium and corrected as a function of the relative differences in compliance between these two networks (Samar & Coleman, Am. J. Physiol., 1978, Vol. 234: pp. H94-100; Yamamoto et al., Am. J. Physiol., 1980, Vol. 238: pp. H823-828).

carotid arteries of rats = test: Contraction of rat carotid arteries under depolarizing hyperpotassic conditions; format: cell-based; settings: pH 7.4, read-out: ED50 (contraction)
Procedure: as §1, §2

septic shock in rats = test: Septic shock induced by LPS in rats; format: in vivo; settings: rat, 28 mg/kg i.v. bolus 5 min before induction of septic shock, compared to control group
Procedure: The activity in septic shock is studied in rats after the induction of the shock by an intravenous injection in the bolus of a lipopolysaccharide endotoxin (LPS: 15 mg/kg) of E. col, in a method similar to that described by Terashita et al., Eur. J. Pharmacol., 1985, Vol. 109: pp. 257-261. The arterial pressures are measured as a function of time and comparatively between treated groups and control groups (excipient alone). The compounds are administered intravenously or orally, 5 min or 2 h, respectively, before the injection of LPS.

**Q.** Which EC50 (jugular vein of the rat) does the source give for `O=C1c2ccccc2C(=O)c2sc(-c3ccco3)nc21` [Example n, 4,9-Dihydro-4,9-dioxo-2-(2-furyl)-naphtho[2,3-d]thiazole] here?
**A.** Its EC50 is 50 nM.

**Q.** What about the “volume of pulmonary exudate” value [1] of the same molecule?
**A.** Its value is “significantly decreases the volume of pulmonary exudate”.

**Q.** And the “contraction of basilar artery” value [2]?
**A.** The value was “contracts”.

**Q.** What about the EC50 [3] of the same molecule?
**A.** Its EC50 is 120 nM.

**Q.** What about the observed signs (mice) of the same molecule?
**A.** The observed signs was “red urine”.

**Q.** What about the “toxic effect and mortality” value (mice) of the same molecule?
**A.** Its value is “no observable toxic effect and no mortality”.

**Q.** And the EC50 [4]?
**A.** The EC50 was 300 nM.

**Q.** And the EC50 (carotid arteries of rats)?
**A.** Its EC50 is 300 nM.

**Q.** What about the “increase of average arterial pressure” value (septic shock in rats) of the same molecule?
**A.** Its value is 20 mm of mercury.
